Reference: patent US11578061B2, “Inhibitors of LRRK2 kinase” (Halia Therapeutics, Inc., priority 2021, dated 2023)

These compounds were tested against recombinant human LRRK2 (catalytic domain only [amino acids 970-2527], GST-tagged) (Homo sapiens (Human), UniProt Q5S007) (assay: LRRK2 Enzymatic Assay). Settings: LRRKtide substrate, [32P]-ATP.
Assay type: biochemical
How it was run: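 Radiometric P81 filter-binding read-out of [32P]-ATP transfer to LRRKtide (20 μM) by 30 nM GST-LRRK2 970-2527, 2 h at room temperature after 20 min compound preincubation (10 μM–0.5 nM, 1% DMSO). IC50 derived from % remaining activity versus DMSO.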

Sequence of recombinant human LRRK2 (catalytic domain only [amino acids 970-2527], GST-tagged) (Q5S007 970-2527): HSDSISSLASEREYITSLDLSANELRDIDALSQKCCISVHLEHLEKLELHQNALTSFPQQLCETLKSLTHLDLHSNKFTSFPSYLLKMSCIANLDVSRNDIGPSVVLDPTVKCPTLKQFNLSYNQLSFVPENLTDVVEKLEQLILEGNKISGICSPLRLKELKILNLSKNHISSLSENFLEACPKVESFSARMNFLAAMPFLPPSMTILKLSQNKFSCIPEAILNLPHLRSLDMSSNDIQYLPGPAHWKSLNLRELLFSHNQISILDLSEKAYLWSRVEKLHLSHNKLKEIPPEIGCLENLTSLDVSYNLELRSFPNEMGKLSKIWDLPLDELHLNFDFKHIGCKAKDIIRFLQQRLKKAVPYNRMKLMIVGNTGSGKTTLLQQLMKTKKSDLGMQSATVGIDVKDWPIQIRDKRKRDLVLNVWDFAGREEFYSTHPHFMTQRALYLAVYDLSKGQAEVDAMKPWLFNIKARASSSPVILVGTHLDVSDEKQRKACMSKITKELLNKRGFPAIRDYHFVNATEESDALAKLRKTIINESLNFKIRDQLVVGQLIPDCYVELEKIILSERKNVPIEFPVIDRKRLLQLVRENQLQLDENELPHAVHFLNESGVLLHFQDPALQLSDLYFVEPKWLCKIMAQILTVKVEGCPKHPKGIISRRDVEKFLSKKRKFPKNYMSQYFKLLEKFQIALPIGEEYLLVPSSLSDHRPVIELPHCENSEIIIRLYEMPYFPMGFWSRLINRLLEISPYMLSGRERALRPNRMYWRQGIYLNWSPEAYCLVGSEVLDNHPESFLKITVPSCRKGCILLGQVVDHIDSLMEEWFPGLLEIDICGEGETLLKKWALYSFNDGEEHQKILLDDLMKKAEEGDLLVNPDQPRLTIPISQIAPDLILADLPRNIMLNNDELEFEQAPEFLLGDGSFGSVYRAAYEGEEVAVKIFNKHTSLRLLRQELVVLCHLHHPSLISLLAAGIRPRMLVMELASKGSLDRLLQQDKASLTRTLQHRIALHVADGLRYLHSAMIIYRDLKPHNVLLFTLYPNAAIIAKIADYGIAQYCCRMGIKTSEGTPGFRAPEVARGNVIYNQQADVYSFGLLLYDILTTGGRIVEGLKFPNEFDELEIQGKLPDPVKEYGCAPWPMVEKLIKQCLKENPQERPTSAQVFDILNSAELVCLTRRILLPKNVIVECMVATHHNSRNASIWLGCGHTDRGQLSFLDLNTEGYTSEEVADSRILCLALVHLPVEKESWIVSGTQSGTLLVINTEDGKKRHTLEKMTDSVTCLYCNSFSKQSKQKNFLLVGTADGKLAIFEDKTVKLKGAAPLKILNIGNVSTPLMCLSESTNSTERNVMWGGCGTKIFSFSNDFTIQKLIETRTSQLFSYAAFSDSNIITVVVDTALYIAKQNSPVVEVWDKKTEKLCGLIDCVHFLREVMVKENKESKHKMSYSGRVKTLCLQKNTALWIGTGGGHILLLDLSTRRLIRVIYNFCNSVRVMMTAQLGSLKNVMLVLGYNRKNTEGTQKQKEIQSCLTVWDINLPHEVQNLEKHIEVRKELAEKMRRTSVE

SMILES	IC50
Cc1nn(C(C)(C)C#N)cc1Nc1ncc(F)c(OCC2(F)CCN(C)CC2)n1 [Example 66, 2-(4-((5-fluoro-4-((4-fluoro-1-methylpiperidin-4-yl)methoxy)pyrimidin-2-yl)amino)-3-methyl-1H-pyrazol-1-yl)-2-methylpropanenitrile]	> 400 nM
Cc1nn(C(F)F)cc1Nc1ncc(F)c(OC[C@H]2CC[C@H](O)CC2)n1 [Example 232, (1R,4R)-4-(((2-((1-(difluoromethyl)-3-methyl-1H-pyrazol-4-yl)amino)-5-fluoropyrimidin-4-yl)oxy)methyl)cyclohexan-1-ol]	50 to 200 nM
Cc1nn(C2CC(C#N)C2)cc1Nc1ncc(Cl)c(OCC2CCOC(C)(C)C2)n1 (stereo not drawn) [Example 150, 3-(4-((5-chloro-4-((2,2-dimethyltetrahydro-2H-pyran-4-yl)methoxy)pyrimidin-2-yl)amino)-3-methyl-1H-pyrazol-1-yl)cyclobutane-1-carbonitrile]	50 to 200 nM
C[C@@H]1CN(c2ccc(Nc3ncc(F)c(OCC4CCC(O)(C(F)(F)F)CC4)n3)cc2)C[C@H](C)O1 (stereo partly drawn) [Example 261, 4-(((2-((4-((2S,6R)-2,6-dimethylmorpholino)phenyl)amino)-5-fluoropyrimidin-4-yl)oxy)methyl)-1-(trifluoromethyl)cyclohexan-1-ol]	50 to 200 nM
COCCn1ncc(Nc2ncc(F)c(OC[C@H]3CC[C@H](NC(C)=O)CC3)n2)c1Cl [Example 205, N-((1R,4R)-4-(((2-((5-chloro-1-(2-methoxyethyl)-1H-pyrazol-4-yl)amino)-5-fluoropyrimidin-4-yl)oxy)methyl)cyclo-hexyl)acetamide]	< 50 nM
Cc1nn(C(C)(C)C#N)cc1Nc1ncc(F)c(OCC2CCC(O)C2)n1 (stereo not drawn) [Example 127, 2-(4-((5-fluoro-4-((3-hydroxycyclopentyl)methoxy)pyrimidin-2-yl)amino)-3-methyl-1H-pyrazol-1-yl)-2-methylpropanenitrile]	< 50 nM
CC(=O)N[C@H]1C[C@H](COc2nc(Nc3ccc(N4CCOCC4)cc3)ncc2F)C1 [Example 92, N-((1R,3R)-3-(((5-fluoro-2-((4-morpholinophenyl)amino)pyrimidin-4-yl)oxy)methyl)cyclo-butyl)acetamide]	200 to 400 nM
Cc1nn(C(C)(C)C#N)cc1Nc1ncc(F)c(OCC2CCC(F)(F)CC2)n1 [Example 270, 2-(4-((4-((4,4-difluorocyclohexyl)methoxy)-5-fluoropyrimidin-2-yl)amino)-3-methyl-1H-pyrazol-1-yl)-2-methylpropanenitrile]	50 to 200 nM
CN[C@H]1CC[C@H](COc2ccnc(Nc3cn(C(C)(C)C#N)nc3C)n2)CC1 [Example 32, 2-methyl-2-(3-methyl-4-((4-(((1R,4R)-4-(methylamino)cyclo-hexyl)methoxy)pyrimidin-2-yl)amino)-1H-pyrazol-1-yl)propanenitrile]	< 50 nM
Cc1nn(C)cc1Nc1ncc(F)c(OC[C@H]2CC[C@H](O)CC2)n1 [Example 229, (1R,4R)-4-(((2-((1,3-dimethyl-1H-pyrazol-4-yl)amino)-5-fluoropyrimidin-4-yl)oxy)methyl)cyclohexan-1-ol]	50 to 200 nM
CN[C@H]1CC[C@H](COc2nc(Nc3cn(C(C)(C)C#N)nc3C)ncc2OC)CC1 [Example 37, 2-(4-((5-methoxy-4-(((1R,4R)-4-(methylamino)cyclo-hexyl)methoxy)py-rimidin-2-yl)amino)-3-methyl-1H-pyrazol-1-yl)-2-methylpropanenitrile]	< 50 nM
CC(=O)N[C@H]1CC[C@@H](COc2nc(Nc3ccc(N4CCOCC4)cc3)ncc2F)C1 [Example 178, N-((1S,3R)-3-(((5-fluoro-2-((4-morpholinophenyl)amino)pyrimidin-4-yl)oxy)methyl)cyclo-pentyl)acetamide]	50 to 200 nM
CCc1nn(C)cc1Nc1ncc(F)c(OC[C@H]2CC[C@H](NC(C)=O)CC2)n1 [Example 198, N-((1R,4R)-4-(((2-((3-ethyl-1-methyl-1H-pyrazol-4-yl)amino)-5-fluoropyrimidin-4-yl)oxy)methyl)cyclo-hexyl)acetamide]	< 50 nM
Cc1nn(C(C)(C)C#N)cc1Nc1ncc(F)c(OCC2CC(C#N)C2)n1 (single isomer, unassigned) [Example 291, 3-(((2-((1-(2-cyanopropan-2-yl)-3-methyl-1H-pyrazol-4-yl)amino)-5-fluoropyrimidin-4-yl)oxy)methyl)cyclobutane-1-carbonitrile]	< 50 nM
OC1(C(F)(F)F)CCC(COc2nc(Nc3ccc(N4CCOCC4)cc3)ncc2F)CC1 (stereo not drawn) [Example 260, 4-(((5-fluoro-2-((4-morpholinophenyl)amino)pyrimidin-4-yl)oxy)methyl)-1-(trifluoromethyl)cyclohexan-1-ol]	50 to 200 nM
CC(C)(O)[C@H]1CC[C@H](COc2nc(Nc3ccc(N4CCOCC4)cc3)ncc2Cl)CC1 [Example 137, 2-((1R,4R)-4-(((5-chloro-2-((4-morpholinophenyl)amino)pyrimidin-4-yl)oxy)methyl)cyclohexyl)propan-2-ol]	< 50 nM
O[C@H]1CC[C@H](COc2nc(Nc3cnn(C4CCOCC4)c3Cl)ncc2F)CC1 [Example 242, (1R,4R)-4-(((2-((5-chloro-1-(tetrahydro-2H-pyran-4-yl)-1H-pyrazol-4-yl)amino)-5-fluoropyrimidin-4-yl)oxy)methyl)cyclohexan-1-ol]	< 50 nM
Cc1nn(C2CC(C#N)C2)cc1Nc1ncc(Cl)c(OCC2CC(F)(F)C2)n1 (stereo not drawn) [Example 160, 3-(4-((5-chloro-4-((3,3-difluorocyclobutyl)methoxy)pyrimidin-2-yl)amino)-3-methyl-1H-pyrazol-1-yl)cyclobutane-1-carbonitrile]	50 to 200 nM
CC(C)n1cc(Nc2ncc(F)c(OC[C@H]3CC[C@@H](O)CC3)n2)cn1 [Example 219, (1S,4S)-4-(((5-fluoro-2-((1-isopropyl-1H-pyrazol-4-yl)amino)pyrimidin-4-yl)oxy)methyl)cyclohexan-1-ol]	> 400 nM
FC(F)CN1CCC(COc2nc(Nc3ccc(N4CCOCC4)cc3)ncc2Cl)CC1 [Example 113, 5-chloro-4-((1-(2,2-difluoroethyl)piperidin-4-yl)methoxy)-N-(4-morpholino-phenyl) pyrimidin-2-amine]	< 50 nM
O[C@H]1CC[C@H](COc2nc(Nc3cnn(CCF)c3)ncc2F)CC1 [Example 224, (1R,4R)-4-(((5-fluoro-2-((1-(2-fluoroethyl)-1H-pyrazol-4-yl)amino)pyrimidin-4-yl)oxy)methyl)cyclohexan-1-ol]	< 50 nM
Cc1nn(C(C)(C)C#N)cc1Nc1ncc(Cl)c(OCC2CC3(C2)CN(C)C3)n1 [Example 70, 2-(4-((5-chloro-4-((2-methyl-2-azaspiro[3.3]heptan-6-yl)methoxy)pyrimidin-2-yl)amino)-3-methyl-1H-pyrazol-1-yl)-2-methylpropanenitrile]	< 50 nM
Cc1nn(C(C)(C)C#N)cc1Nc1ncc(Cl)c(OCC2CCN(C(=O)C(F)F)CC2)n1 [Example 111, 2-(4-((5-chloro-4-((1-(2,2-difluoro-acetyl)piperidin-4-yl)methoxy)pyrimidin-2-yl)amino)-3-methyl-1H-pyrazol-1-yl)-2-methyl-propanenitrile]	< 50 nM
C[C@@H]1CN(c2ccc(Nc3ncc(F)c(OCC4CCS(=O)(=O)CC4)n3)cc2)C[C@H](C)O1 [Example 288, 4-(((2-((4-((2R,6S)-2,6-dimethylmorpholino)phenyl)amino)-5-fluoropyrimidin-4-yl)oxy)methyl)tetrahydro-2H-thiopyran 1,1-dioxide]	> 400 nM
